Reference: patent US8232406B2, “c-MET protein kinase inhibitors” (Vertex Pharmaceuticals Incorporated, priority 2006, dated 2012)

What follows are compounds tested against c-MET (Homo sapiens, UniProt P08581) (assay: Ki determination for the inhibition of c-MET (standard radiometric 33P-ATP kinase assay, polyE4Y substrate)). Conditions: 1.0 nM c-Met, 35 μM ATP, 0.5 mg/mL polyE4Y, 20 min; competitive tight-binding fit.
Assay type: biochemical
Procedure, shortened: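 Radiometric assay of 33P transfer from 33P-ATP (35 μM) to polyE4Y (0.5 mg/mL) by 1.0 nM c-Met in 100 mM HEPES pH 7.5, 10 mM MgCl2, 25 mM NaCl, 0.01% BSA, 1 mM DTT. TCA-quenched after 20 min, filter-captured, scintillation-counted; Ki fitted to a competitive tight-binding model.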

Sequence of c-MET (P08581 25-1390): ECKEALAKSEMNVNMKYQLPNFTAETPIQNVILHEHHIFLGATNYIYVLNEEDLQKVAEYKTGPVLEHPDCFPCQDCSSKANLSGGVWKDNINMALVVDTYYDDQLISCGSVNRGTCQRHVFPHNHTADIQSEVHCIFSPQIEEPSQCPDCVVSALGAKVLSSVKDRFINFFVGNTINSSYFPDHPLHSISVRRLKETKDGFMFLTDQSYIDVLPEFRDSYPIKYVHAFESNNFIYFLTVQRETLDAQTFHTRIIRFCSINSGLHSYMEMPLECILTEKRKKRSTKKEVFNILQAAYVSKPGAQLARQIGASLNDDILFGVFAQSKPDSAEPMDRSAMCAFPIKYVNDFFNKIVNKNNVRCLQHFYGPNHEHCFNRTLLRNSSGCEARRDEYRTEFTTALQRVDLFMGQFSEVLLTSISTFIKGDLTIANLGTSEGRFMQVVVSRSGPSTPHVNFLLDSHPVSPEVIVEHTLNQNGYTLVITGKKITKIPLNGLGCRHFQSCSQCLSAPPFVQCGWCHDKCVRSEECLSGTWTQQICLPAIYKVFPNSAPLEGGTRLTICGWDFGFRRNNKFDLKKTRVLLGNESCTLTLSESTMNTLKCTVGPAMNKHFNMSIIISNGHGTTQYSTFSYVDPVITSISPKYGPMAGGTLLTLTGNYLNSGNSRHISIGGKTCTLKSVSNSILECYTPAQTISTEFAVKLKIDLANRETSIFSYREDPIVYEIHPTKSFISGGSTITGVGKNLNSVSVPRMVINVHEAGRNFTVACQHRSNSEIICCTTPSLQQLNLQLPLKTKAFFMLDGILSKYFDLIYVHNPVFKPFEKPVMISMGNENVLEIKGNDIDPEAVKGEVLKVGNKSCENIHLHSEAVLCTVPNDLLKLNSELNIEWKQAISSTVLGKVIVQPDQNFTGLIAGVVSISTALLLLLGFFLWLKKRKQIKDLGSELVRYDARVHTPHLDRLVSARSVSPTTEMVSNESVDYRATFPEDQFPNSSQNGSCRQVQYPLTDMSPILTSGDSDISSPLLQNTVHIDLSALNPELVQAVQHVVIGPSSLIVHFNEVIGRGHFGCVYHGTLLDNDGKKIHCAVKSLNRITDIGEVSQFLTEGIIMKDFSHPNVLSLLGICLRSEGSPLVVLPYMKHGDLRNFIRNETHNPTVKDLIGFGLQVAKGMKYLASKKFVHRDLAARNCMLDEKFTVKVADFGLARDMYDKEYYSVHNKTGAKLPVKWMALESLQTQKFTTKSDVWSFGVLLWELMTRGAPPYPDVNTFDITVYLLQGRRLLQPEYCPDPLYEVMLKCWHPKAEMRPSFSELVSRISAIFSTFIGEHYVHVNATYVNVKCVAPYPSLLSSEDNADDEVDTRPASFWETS

Compound | Ki
Nc1ncc(-c2cnn(C3CCNCC3)c2)cc1-c1nnnn1-c1cc(F)ccc1F [I-A-625] | 100 to 1000 nM
Nc1ncc(-c2ccccc2O)cc1-c1nnnn1-c1cccc(F)c1F [I-A-145] | ≤ 100 nM
CCN(CC)Cc1ccc(-c2cnc(N)c(-c3nnnn3-c3cccc(F)c3F)c2)cc1 [I-A-66] | ≤ 100 nM
CN1CCN(c2ccc(-c3cnc(N)c(-c4ncsc4-c4cccc(Cl)c4Cl)c3)cc2)CC1 [I-C-11] | 100 to 1000 nM
Nc1ncc(-c2cccc([N+](=O)[O-])c2)cc1-c1nnnn1-c1cccc(F)c1F [I-A-239] | ≤ 100 nM
Nc1ncc(-c2ccc(CN3CCCC3)cc2)cc1-c1nccn1-c1cccc(Cl)c1Cl [I-A-393] | ≤ 100 nM
Nc1ncc(-c2ccc(CN3CCC[C@@H]3CN3CCCC3)cc2)cc1-c1nnnn1-c1cccc(Cl)c1Cl [I-A-118] | ≤ 100 nM
Nc1ncc(-c2ccc(NC(=O)NC3CCCC3)cc2)cc1-c1nnnn1-c1cccc(F)c1F [I-A-333] | 100 to 1000 nM
CN(C)Cc1ccc(-c2cnc(N)c(-c3nncn3-c3cccc(F)c3F)n2)cc1 [I-A-8] | ≤ 100 nM
CC(=O)Nc1cc(-c2cnc(N)c(-c3nnnn3-c3cccc(F)c3F)c2)ccc1CN1CCCC1 [I-A-339] | ≤ 100 nM
NC(=O)[C@@H]1CCCN1Cc1ccc(-c2cnc(N)c(-c3nnnn3-c3cccc(Cl)c3Cl)c2)cc1 [I-A-121] | ≤ 100 nM
CC(C)c1ccc(-c2cnc(N)c(-c3nnnn3-c3cccc(F)c3F)c2)cc1 [I-A-237] | 100 to 1000 nM
Cc1c(Cl)cccc1-n1nnnc1-c1cc(-c2cccnc2)cnc1N [I-A-551] | 100 to 1000 nM
Nc1ncc(-c2cnn(C3CCN(CCO)CC3)c2)cc1-c1nnnn1-c1cccc(Cl)c1F [I-A-469] | ≤ 100 nM
CN(C)Cc1ccc(-c2cnc(N)c(-c3nnnn3-c3c(F)ccc(F)c3Cl)c2)cc1 [I-A-630] | ≤ 100 nM
Nc1ncc(C2=CCN(C(=O)CC3CC3)CC2)cc1-c1nnnn1-c1cccc(F)c1F [I-A-524] | ≤ 100 nM
Nc1ncc(-c2cnn(C[C@@H]3CCCN3)c2)cc1-c1nnnn1-c1cccc(F)c1F [I-A-500] | ≤ 100 nM
CC(=O)Nc1cccc(-c2cnc(N)c(-c3nnnn3-c3c(F)ccc(F)c3N)c2)c1 [I-A-383] | 100 to 1000 nM
CC(=O)Nc1ccc(-c2cnc(N)c(-c3nnnn3-c3cc(Cl)ccc3C)c2)cc1 [I-A-576] | 100 to 1000 nM
Nc1ncc(-c2ccc(CN3CCN(Cc4ccncc4)CC3)cc2)cc1-c1nnnn1-c1cccc(Cl)c1Cl [I-A-105] | 100 to 1000 nM
C[C@@H](c1ccc(-c2cnc(N)c(-c3nnnn3-c3cccc(F)c3F)c2)cc1)N1CCCC1 [I-A-211] | ≤ 100 nM

Compound | Ki
Nc1ncc(-c2ccsc2)cc1-c1nncn1-c1cccc(Cl)c1Cl [I-A-70] | 100 to 1000 nM
CN(C)CCn1cc(-c2cnc(N)c(-c3nnnn3-c3cccc(F)c3F)c2)cn1 [I-A-406] | ≤ 100 nM
Nc1ncc(C2=CCCNCC2)cc1-c1nnnn1-c1cccc(F)c1F [I-A-646] | 100 to 1000 nM
Nc1ncc(-c2cnn(CC(O)CO)c2)cc1-c1nnnn1-c1cccc(F)c1F (centres unmarked) [I-A-368] | ≤ 100 nM
Nc1ncc(-c2ccc(F)cc2)cc1-c1nnnn1-c1cccc(F)c1F [I-A-223] | ≤ 100 nM
CC(C)(O)c1ccc(-c2cnc(N)c(-c3nnnn3-c3cccc(F)c3F)c2)cc1 [I-A-268] | ≤ 100 nM
CC(C)C(=O)N1CC=C(c2cnc(N)c(-c3nnnn3-c3cccc(F)c3F)c2)CC1 [I-A-512] | ≤ 100 nM
Nc1ncc(-c2cnn(CCN3CCCC3)c2)cc1-c1nnnn1-c1cccc(F)c1F [I-A-407] | ≤ 100 nM
COc1c(F)cccc1-n1nnnc1-c1cc(-c2cccc(NC(C)=O)c2)cnc1N [I-A-562] | 100 to 1000 nM
CS(=O)(=O)NCc1ccc(-c2cnc(N)c(-c3nnnn3-c3cccc(F)c3F)c2)cc1 [I-A-192] | ≤ 100 nM
COc1cc2nc(N)[nH]c2cc1-c1cnc(N)c(-c2nnnn2-c2cccc(F)c2F)n1 [I-A-54] | ≤ 100 nM
CC(=O)Nc1cccc(-c2cnc(N)c(-c3nnnn3-c3cc(F)cc(F)c3Cl)c2)c1 [I-A-570] | 100 to 1000 nM
Nc1ncc(-c2ccc(CN3CCCC3)cc2)cc1-c1nnnn1-c1c(F)ccc(Cl)c1F [I-A-376] | ≤ 100 nM
Nc1ncc(-c2cnc3[nH]ccc3c2)nc1-c1nncn1-c1cccc(F)c1F [I-A-13] | ≤ 100 nM
Nc1ncc(-c2cccc(C(F)(F)F)c2)cc1-c1nnnn1-c1cccc(F)c1F [I-A-215] | 100 to 1000 nM
CNc1ccc(-c2cnc(N)c(-c3nnnn3-c3cccc(F)c3F)c2)cc1C#N [I-A-341] | ≤ 100 nM
CC1(C)CN(c2ccc(-c3cnc(N)c(-c4nnnn4-c4cccc(F)c4F)c3)cc2)C1=O [I-A-357] | 100 to 1000 nM
Nc1ncc(-c2cnn(C3CCN(CC4CC4)CC3)c2)cc1-c1nnnn1-c1cccc(F)c1F [I-A-449] | ≤ 100 nM
Nc1ncc(-c2cnn(C3CCNCC3)c2)cc1-c1nc2cccnc2n1-c1cccc(Cl)c1F [I-D-15] | 100 to 1000 nM
CC(=O)Nc1ccc(-c2cnc(N)c(-c3nnnn3-c3cccc(F)c3C)c2)cc1 [I-A-574] | 100 to 1000 nM
Nc1ncc(-c2cnn(CCN3CCCC3)c2)cc1-c1nnnn1-c1cccc(Cl)c1Cl [I-A-411] | ≤ 100 nM

Compound | Ki
Nc1ncc(-c2ccc(NC(=O)CN3CCOCC3)cc2)cc1-c1nnnn1-c1cccc(F)c1F [I-A-163] | 100 to 1000 nM
Nc1ncc(-c2cc3c(s2)CCNCC3)cc1-n1nnnc1-c1cccc(F)c1F [I-E-2] | 100 to 1000 nM
CN1CCN(c2ccc(-c3cnc(N)c(-c4nccn4-c4cccc(Cl)c4Cl)c3)cc2)CC1 [I-A-402] | 100 to 1000 nM
CC(C)C(=O)Nc1cccc(-c2cnc(N)c(-c3nnnn3-c3cccc(F)c3F)c2)c1 [I-A-260] | 100 to 1000 nM
Nc1ncc(-c2cnn([C@H]3CCCNC3)c2)cc1-c1nnnn1-c1cccc(Cl)c1Cl [I-A-409] | ≤ 100 nM
COCCOC(=O)Nc1ccc(-c2cnc(N)c(-c3nnnn3-c3cccc(F)c3F)c2)cc1 [I-A-277] | ≤ 100 nM
CN1CCN(c2ccc(-c3cnc(N)c(-c4nncn4-c4cccc(F)c4F)n3)cc2)CC1 [I-A-7] | ≤ 100 nM
COc1ccc(-c2cnc(N)c(-c3nncn3-c3cccc(Cl)c3Cl)c2)cc1 [I-A-69] | 100 to 1000 nM
Nc1ncc(-c2nccs2)cc1-c1nnnn1-c1cccc(F)c1F [I-A-539] | 100 to 1000 nM
Nc1ncc(-c2cnn([C@@H]3CCNC3)c2)cc1-c1nnnn1-c1cccc(F)c1F [I-A-404] | ≤ 100 nM
Nc1ncc(-c2cnn([C@@H]3CCOC3)c2)cc1-c1nnnn1-c1cccc(Cl)c1F [I-A-420] | ≤ 100 nM
CSc1ccccc1-c1cnc(N)c(-c2nnnn2-c2cccc(F)c2F)c1 [I-A-252] | 100 to 1000 nM
C[C@H](c1ccc(-c2cnc(N)c(-c3nnnn3-c3cccc(F)c3F)c2)cc1)N1CCCC1 [I-A-212] | ≤ 100 nM
Nc1ncc(-c2cccc(CN3CCCC3)c2)cc1-c1nnnn1-c1cccc(Cl)c1Cl [I-A-109] | ≤ 100 nM
CC(=O)Nc1cccc(-c2cnc(N)c(-c3nncn3-c3cccc(Cl)c3Cl)c2)c1 [I-A-73] | 100 to 1000 nM
CC(=O)Nc1ccc(-c2cnc(N)c(-c3nnnn3-c3cc(Cl)ccc3F)c2)cc1 [I-A-582] | 100 to 1000 nM
COc1ccc(F)cc1-n1nnnc1-c1cc(-c2ccc(CN3CCCC3)cc2)cnc1N [I-A-602] | 100 to 1000 nM
Nc1ncc(-c2ccc(N3CCCC3=O)cc2)cc1-c1nnnn1-c1cccc(F)c1F [I-A-189] | ≤ 100 nM
CC(=O)N1CCN(Cc2ccc(-c3cnc(N)c(-c4nc5cnccc5n4-c4cccc(F)c4F)c3)cc2)CC1 [I-D-6] | ≤ 100 nM
CN(C)CCn1cc(-c2cnc(N)c(-c3nnnn3-c3cccc(Cl)c3Cl)c2)cn1 [I-A-410] | ≤ 100 nM
COC(=O)c1ccc(-c2cnc(N)c(-c3nnnn3-c3cccc(F)c3F)c2)cc1 [I-A-316] | 100 to 1000 nM

Compound | Ki
Nc1ncc(-c2ccc(CN3CCCC3)cc2)cc1-c1nnnn1-c1cc(F)ccc1Cl [I-A-596] | 100 to 1000 nM
Nc1ccc(-c2cnc(N)c(-c3nnnn3-c3cccc(F)c3F)c2)cc1F [I-A-286] | ≤ 100 nM
Cc1nn(C2CCNCC2)c(C)c1-c1cnc(N)c(-c2nnnn2-c2cccc(F)c2F)c1 [I-A-478] | 100 to 1000 nM
Nc1ncc(-c2ccc(F)nc2)cc1-c1nnnn1-c1cccc(F)c1F [I-A-318] | 100 to 1000 nM
CC(C)(C)NC(=O)Nc1ccc(-c2cnc(N)c(-c3nnnn3-c3cccc(F)c3F)c2)cc1 [I-A-332] | ≤ 100 nM
CN(C)Cc1ccc(-c2cnc(N)c(-c3nnsc3-c3cccc(Cl)c3Cl)c2)cc1 [I-C-5] | ≤ 100 nM
Nc1ncc(-c2cccnc2)cc1-c1nnnn1-c1c(F)ccc(F)c1Cl [I-A-618] | 100 to 1000 nM
Nc1ncc(-c2ccc3c(c2)OC(F)(F)O3)cc1-c1nnnn1-c1cccc(F)c1F [I-A-285] | 100 to 1000 nM
Nc1ccc(-c2cnc(N)c(-c3nnnn3-c3cccc(F)c3F)c2)cc1N [I-A-298] | ≤ 100 nM
CC(c1ccc(-c2cnc(N)c(-c3nnnn3-c3cccc(F)c3F)c2)s1)N1CCCC1 (centres unmarked) [I-A-262] | ≤ 100 nM
Nc1ncc(-c2cnn(C3CCN(C(=O)C(F)(F)F)CC3)c2)cc1-c1nnnn1-c1cccc(F)c1Cl [I-A-395] | 100 to 1000 nM
Nc1ncc(-c2ccc(OCCN3CCCC3)cc2)cc1-c1nnnn1-c1cccc(F)c1F [I-A-346] | ≤ 100 nM
Nc1ncc(-c2ccccc2Cl)cc1-c1nnnn1-c1cccc(F)c1F [I-A-224] | 100 to 1000 nM
Nc1ncc(-c2ccc(CN3CCC[C@H]3CO)cc2)cc1-c1nnnn1-c1cccc(F)c1F [I-A-133] | ≤ 100 nM
CC(=O)Nc1ccc(-c2cnc(N)c(-c3nc4cnccc4n3-c3cccc(F)c3F)c2)cc1 [I-D-13] | ≤ 100 nM
CN(C)Cc1ccc(-c2cnc(N)c(-c3nnnn3-c3c(F)cccc3Cl)c2)cc1 [I-A-623] | ≤ 100 nM
CC(=O)N1CC=C(c2cnc(N)c(-c3nnnn3-c3cccc(F)c3F)c2)CC1 [I-A-510] | ≤ 100 nM
CN1CCN(Cc2ccc(-c3cnc(N)c(-c4nncn4-c4cccc(F)c4F)n3)cc2)CC1 [I-A-6] | ≤ 100 nM
Cc1nn(C2CCNCC2)c(C)c1-c1cnc(N)c(-c2nnnn2-c2cccc(Cl)c2F)c1 [I-A-479] | 100 to 1000 nM
Nc1ncc(-c2ccc(F)cc2)cc1-c1nncn1-c1cccc(F)c1F [I-A-112] | 100 to 1000 nM
